Data published in patent US20240343740A1, “MACROCYCLIC GLUCAGON-LIKE PEPTIDE 1 RECEPTOR AGONISTS” (Eli Lilly and Company, priority 2021, published 2024).

Experiments:
human GLP-1R [1] = target: T1, human GLP-1R (Homo sapiens, UniProt P43220); experiment: Human GLP-1 Receptor HEK293 cell cAMP assay, 581 fmol/mg GLP-1R expression density; format: cell-based; parameters: expressed in transfected cells; host or cells: HEK293 clonal cell line; conditions: HEK293 cell line with 581 fmol/mg expression density of GLP-1R; for EC50: geometric mean, read-out: EC50 nM (SEM, n), intracellular cAMP response, relative EC50; for Emax: percent of maximal response to GLP-1(7-36)NH2, arithmetic mean, read-out: Emax % (SEM, n), intracellular cAMP response
Outline: (§1)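 HEK293 clonal lines expressing human GLP-1R, 20-point compound curves, 30 min at 37° C in DMEM with 0.1% casein, 250 μM IBMX, 0.5% DMSO. cAMP by HTRF, converted via standard curve to % of maximal human GLP-1(7-36)NH2 response; relative EC50 and Emax from four-parameter logistic fit.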

human GLP-1R [2] = target: T1, human GLP-1R; experiment: Human GLP-1 Receptor HEK293 cell cAMP assay, 104 fmol/mg GLP-1R expression density; format: cell-based; parameters: expressed in transfected cells; host or cells: HEK293 clonal cell line; conditions: HEK293 cell line with 104 fmol/mg expression density of GLP-1R; for EC50: geometric mean, read-out: EC50 nM (SEM, n), intracellular cAMP response, relative EC50; for Emax: percent of maximal response to GLP-1(7-36)NH2, arithmetic mean, read-out: Emax % (SEM, n), intracellular cAMP response
Outline: as §1

T1 sequence (P43220 24-463): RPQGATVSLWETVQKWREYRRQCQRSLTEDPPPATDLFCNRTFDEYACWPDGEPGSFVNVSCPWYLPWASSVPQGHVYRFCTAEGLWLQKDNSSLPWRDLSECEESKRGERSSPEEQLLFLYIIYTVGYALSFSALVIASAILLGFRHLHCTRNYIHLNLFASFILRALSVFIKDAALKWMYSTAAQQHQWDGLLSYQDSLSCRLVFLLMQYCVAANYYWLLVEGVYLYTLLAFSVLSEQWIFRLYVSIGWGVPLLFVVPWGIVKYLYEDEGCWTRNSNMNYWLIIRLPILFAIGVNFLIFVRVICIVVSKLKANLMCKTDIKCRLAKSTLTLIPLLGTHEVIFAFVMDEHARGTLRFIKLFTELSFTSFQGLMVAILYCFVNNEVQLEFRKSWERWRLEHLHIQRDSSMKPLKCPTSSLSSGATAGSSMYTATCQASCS

Row | SMILES | EC50 (human GLP-1R [1]) | Emax (human GLP-1R [1]) | EC50 (human GLP-1R [2]) | Emax (human GLP-1R [2])
1 | CN(C)C(=O)COc1cc(C(=O)O)cc2c1nc(Cc1ccc3cc1OCCCc1cc(C#N)ccc1COc1cccc-3n1)n2C[C@@H]1CCO1 [Example 62, (S)-2-((5^4-Cyano-3,9-dioxa-2(2,6)-pyridina-1(1,3),5(1,2)-dibenzenacyclononaphane-1^4-yl)methyl)-4-(2-(dimethylamino)-2-oxoethoxy)-1-(oxetan-2-ylmethyl)-1H-benzo[d]imidazole-6-carboxylic acid] | 285 nM | 62.2% | 737 nM | 32.9%
2 | CCn1cncc1Cn1c(Cc2ccc3cc2OCCCc2cc(C#N)ccc2COc2cccc-3n2)nc2c(OC)cc(C(=O)O)cc21 [Example 63, 2-((5^4-Cyano-3,9-dioxa-2(2,6)-pyridina-1(1,3),5(1,2)-dibenzenacyclononaphane-1^4-yl)methyl)-1-((1-ethyl-1H-imidazol-5-yl)methyl)-4-methoxy-1H-benzo[d]imidazole-6-carboxylic acid] | 29.9 nM | 101% | 112 nM | 81.1%
3 | COCCOc1cc(C(=O)O)cc2c1nc(Cc1ccc3cc1COCCc1cc(C#N)ccc1COc1cccc-3n1)n2C[C@@H]1CCO1 [Example 64, (S)-2-((5^4-Cyano-3,8-dioxa-2(2,6)-pyridina-1(1,3),5(1,2)-dibenzenacyclononaphane-1^4-yl)methyl)-4-(2-methoxyethoxy)-1-(oxetan-2-ylmethyl)-1H-benzo[d]imidazole-6-carboxylic acid] | 2.13 nM | 110% | 5.53 nM | 87.3%
4 | COCCOc1cc(C(=O)O)cc2c1nc(Cc1ccc3cc1COCCc1cc(ccc1C#N)COc1cccc-3n1)n2C[C@@H]1CCO1 [Example 65, (S)-2-((5^4-Cyano-3,8-dioxa-2(2,6)-pyridina-1,5(1,3)-dibenzenacyclononaphane-1^4-yl)methyl)-4-(2-methoxyethoxy)-1-(oxetan-2-ylmethyl)-1H-benzo[d]imidazole-6-carboxylic acid] | 1.86 nM | 110% | 4.62 nM | 98.2%
5 | O=C(O)c1ccc2nc(Cc3ccc4cc3OCCCc3cc(-n5cnc(F)c5)ccc3COc3cccc-4n3)n(C[C@@H]3CCO3)c2c1 [Example 66, (S)-2-((5^4-(4-Fluoro-1H-imidazol-1-yl)-3,9-dioxa-2(2,6)-pyridina-1(1,3),5(1,2)-dibenzenacyclononaphane-1^4-yl)methyl)-1-(oxetan-2-ylmethyl)-1H-benzo[d]imidazole-6-carboxylic acid] | 13.4 nM | 118% | 54.5 nM | 82.5%
6 | COCCOc1cc(C(=O)O)cc2c1nc(Cc1cc(F)c3cc1COCc1cc(Cl)ccc1COc1cccc-3n1)n2C[C@@H]1CCO1 [Example 67, (S)-2-((5^4-Chloro-1^6-fluoro-3,7-dioxa-2(2,6)-pyridina-1(1,3),5(1,2)-dibenzenacyclooctaphane-1^4-yl)methyl)-4-(2-methoxyethoxy)-1-(oxetan-2-ylmethyl)-1H-benzo[d]imidazole-6-carboxylic acid] | 2.13 nM | 117% | 6.88 nM | 91.6%
7 | COCCOc1cc(C(=O)O)cc2c1nc(Cc1cc(F)c3cc1COCc1cc(C#N)ccc1COc1cccc-3n1)n2C[C@@H]1CCO1 [Example 68, (S)-2-((5^4-Cyano-1^6-fluoro-3,7-dioxa-2(2,6)-pyridina-1(1,3),5(1,2)-dibenzenacyclooctaphane-1^4-yl)methyl)-4-(2-methoxyethoxy)-1-(oxetan-2-ylmethyl)-1H-benzo[d]imidazole-6-carboxylic acid] | 6.82 nM | 115% | 8.72 nM | 98.5%
8 | COc1cc(C(=O)NS(=O)(=O)CC2CC2)cc2c1nc(Cc1cc(C)c3cc1OCCCc1cc(F)ccc1COc1cccc-3n1)n2C[C@@H]1CCO1 [Example 69, (S)—N-((Cyclopropylmethyl)sulfonyl)-2-((5^4-fluoro-1^6-methyl-3,9-dioxa-2(2,6)-pyridina-1(1,3),5(1,2)-dibenzenacyclononaphane-1^4-yl)methyl)-4-methoxy-1-(oxetan-2-ylmethyl)-1H-benzo[d]imidazole-6-carboxamide] | 59.8 nM | 71.6% | 103 nM | 26.6%
9 | COCCOc1cc(C(=O)O)cc2c1nc(Cc1cc(F)c3cc1COCCc1cc(C#N)cc(F)c1COc1cccc-3n1)n2C[C@@H]1CCO1 [Example 70, (S)-2-((5^4-Cyano-1^6,5^6-difluoro-3,8-dioxa-2(2,6)-pyridina-1(1,3),5(1,2)-dibenzenacyclononaphane-1^4-yl)methyl)-4-(2-methoxyethoxy)-1-(oxetan-2-ylmethyl)-1H-benzo[d]imidazole-6-carboxylic acid] | 3.11 nM | 92.3% | 12.6 nM | 95%
10 | O=C(O)c1ccc2nc(Cc3ccc4cc3OCCCc3cc(-n5ccc(=O)c(F)c5)ccc3COc3cccc-4n3)n(C[C@@H]3CCO3)c2c1 [Example 71, (S)-2-((5^4-(3-Fluoro-4-oxopyridin-1(4H)-yl)-3,9-dioxa-2(2,6)-pyridina-1(1,3),5(1,2)-dibenzenacyclononaphane-1^4-yl)methyl)-1-(oxetan-2-ylmethyl)-1H-benzo[d]imidazole-6-carboxylic acid] | 138 nM | 68.4% | 598 nM | 52.1%
11 | Cc1cn(-c2ccc3c(c2)CCCOc2cc(ccc2Cc2nc4ccc(C(=O)O)cc4n2C[C@@H]2CCO2)-c2cccc(n2)OC3)cn1 [Example 72, (S)-2-((5^4-(4-Methyl-1H-imidazol-1-yl)-3,9-dioxa-2(2,6)-pyridina-1(1,3),5(1,2)-dibenzenacyclononaphane-1^4-yl)methyl)-1-(oxetan-2-ylmethyl)-1H-benzo[d]imidazole-6-carboxylic acid] | 92.5 nM | 106% | 348 nM | 90.4%
12 | O=C(O)c1ccc2nc(Cc3ccc4cc3OCCCc3cc(-n5ccnc5)ccc3COc3cccc-4n3)n(C[C@@H]3CCO3)c2c1 [Example 73, (S)-2-((5^4-(1H-Imidazol-1-yl)-3,9-dioxa-2(2,6)-pyridina-1(1,3),5(1,2)-dibenzenacyclononaphane-1^4-yl)methyl)-1-(oxetan-2-ylmethyl)-1H-benzo[d]imidazole-6-carboxylic acid] | 21.3 nM | 106% | 68.5 nM | 84.1%
13 | O=C(O)c1ccc2nc(Cc3ccc4cc3OCCCc3cc(-n5ccc(=O)cc5)ccc3COc3cccc-4n3)n(C[C@@H]3CCO3)c2c1 [Example 74, (S)-1-(Oxetan-2-ylmethyl)-2-((5^4-(4-oxopyridin-1(4H)-yl)-3,9-dioxa-2(2,6)-pyridina-1(1,3),5(1,2)-dibenzenacyclononaphane-1^4-yl)methyl)-1H-benzo[d]imidazole-6-carboxylic acid] | 155 nM | 92.1% | 533 nM | 73.3%
14 | COCCOc1cc(C(=O)O)cc2c1nc(Cc1cc(F)c3cc1COCc1cc(-c4ccc(=O)n(C)c4)ccc1COc1cccc-3n1)n2C[C@@H]1CCO1 [Example 75, (S)-2-((1^6-Fluoro-5^4-(1-methyl-6-oxo-1,6-dihydropyridin-3-yl)-3,7-dioxa-2(2,6)-pyridina-1(1,3),5(1,2)-dibenzenacyclooctaphane-1^4-yl)methyl)-4-(2-methoxyethoxy)-1-(oxetan-2-ylmethyl)-1H-benzo[d]imidazole-6-carboxylic acid] | 6.33 nM | 93.9% | 17.4 nM | 71.6%
